# Measured values from PubChem BioAssay (NCI).
#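 Cultured in 96-well plates, cells were exposed to test compound for 48 hours across five concentrations. GI50 = concentration required for 50% inhibition of growth. TGI: concentration producing complete growth inhibition.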
# Tests used:
# Test in all cases: NCI tumour cell line growth inhibition, 48 h
# [1] = test system: COLO 205 colon
# [2] = test system: SK-MEL-2 melanoma
# [3] = test system: OVCAR-5 ovarian
# [4] = test system: ACHN renal
# [5] = test system: HT29 colon
# [6] = test system: SW-620 colon
# [7] = test system: OVCAR-3 ovarian
# [8] = test system: TK-10 renal
# [9] = test system: SR leukemia
# [10] = test system: DU-145 prostate
SMILES,TGI [1],TGI [2],TGI [3],TGI [4],TGI [5],TGI [6],TGI [7],TGI [8],TGI [9],GI50 [1],GI50 [2],GI50 [3],GI50 [4],GI50 [5],GI50 [6],GI50 [10],TGI [10],GI50 [8],GI50 [7]
Nc1c(-c2ccc(-c3c(N)[n+]([O-])c4ccccc4[n+]3[O-])cc2)[n+]([O-])c2ccccc2[n+]1[O-],29.6 µM,28.9 µM,35.2 µM,31.1 µM,27.1 µM,21.6 µM,29.8 µM,32.1 µM,,,,,,,,,,,
COc1ccc2c(c1)[n+](=O)c(C(=O)C/C(=N\NC(=O)C[N+](C)(C)C)C(=O)Nc1cc(Cl)ccc1Cl)c(C)n2O,> 100 µM,> 100 µM,> 100 µM,> 100 µM,> 100 µM,> 100 µM,> 100 µM,> 100 µM,> 100 µM,,,,,,,,,,
Cc1cc(=O)[nH]c2c1C(=O)C(=O)C=C2,> 100 µM,> 100 µM,> 100 µM,> 100 µM,> 100 µM,67.8 µM,,> 100 µM,,> 100 µM,> 100 µM,41.3 µM,31.7 µM,38.2 µM,24.7 µM,25 µM,53.9 µM,64.1 µM,
O=C1OC(/C=C/c2ccccc2)C(=O)C1=O (stereo not given),> 100 µM,> 100 µM,> 100 µM,> 100 µM,> 100 µM,> 100 µM,,> 100 µM,,,,,,,,,,,
CCCCCCCCCCCCCCCc1nc(SCC(=O)O)n[nH]1,,> 100 µM,,> 100 µM,> 100 µM,> 100 µM,> 100 µM,> 100 µM,> 100 µM,,,,,,,,,,
COc1cc2c(cc1OC)-c1c(c3ccc([N+](=O)[O-])cc3c(=O)n1CCCBr)C2=O,> 100 µM,> 100 µM,> 100 µM,36.8 µM,> 100 µM,> 100 µM,> 100 µM,> 100 µM,,> 100 µM,> 100 µM,> 100 µM,1.18 µM,61.9 µM,21.8 µM,24.5 µM,> 100 µM,> 100 µM,71.1 µM
O=c1cc(/C=C/c2ccccc2)c2ccc(O/C(=C\c3ccccc3)c3nc4ccccc4c(=O)o3)cc2o1,73.8 µM,77.7 µM,> 100 µM,61.7 µM,,> 100 µM,81.1 µM,> 100 µM,,,,,,,,,,,
Cn1c(=O)c2nc3sc4ccccc4c(=N)n3c2n(C)c1=O,> 100 µM,> 100 µM,> 100 µM,> 100 µM,> 100 µM,> 100 µM,,> 100 µM,> 100 µM,,,,,,,,,,
O=C1OC(=O)C2C1C1(c3ccccc3)OC2(c2ccccc2)c2c(Br)c(Br)c(Br)c(Br)c21 (stereo not given),> 100 µM,> 100 µM,> 100 µM,,> 100 µM,> 100 µM,> 100 µM,> 100 µM,,,,,,,,,,,
Fc1cccc(C2SCc3nc4ccccc4n32)c1 (stereo not given),> 100 µM,> 100 µM,79.3 µM,> 100 µM,> 100 µM,> 100 µM,> 100 µM,> 10 µM,> 100 µM,,,,,,,,,,
CC1(C)OC(=O)C(c2ccsc2)C(=O)O1,> 100 µM,> 100 µM,> 100 µM,> 100 µM,> 100 µM,> 100 µM,> 100 µM,> 100 µM,> 100 µM,,,,,,,,,,
